These results are taken from patent publication US10035778B2, “Meta-azacyclic amino benzoic acid derivatives as pan integrin antagonists” (Saint Louis University, priority 2015, dated 2018).

Assay type in all cases: binding
Experiment [1] deals with Recombinant human integrin α5β1 (Homo sapiens (Human), UniProt P05556+P08648). Briefly: Solid Phase Receptor Assay (SPRA) for α5β1 function. The conditions noted are these: fibronectin-coated plate. Here is the method:
1. Solid Phase Receptor Assay (SPRA) for α5β1 Function
Purified human fibronectin (R&D Systems, 1918-FN) diluted to 2 μg/mL in TBS+ buffer (25 mM Tris pH 7.4, 137 mM NaCl, 2.7 mM KCl, 1 mM CaCl2, 1 mM MgCl2, 1 mM MnCl2) was added to wells (50 μL/well) of a 96-well half-well transparent microtiter plate (Greiner 675061) and incubated overnight at 4° C. Wells were washed 3 times with 150 μL TBS+ and 150 μL of blocking buffer (TBS+ with 1% bovine serum albumin, Sigma A7906) were added. The plate was incubated for 1 hr at 37° C. and then washed 3× with TBS+ buffer. Recombinant human integrin α5β1 (R&D Systems, 3230-A5) was diluted to 0.1 μg/mL in TBS+/0.1% bovine serum albumin. Compounds were diluted 1:100 into the integrin solution and then 50 μL added to empty wells of the washed fibronectin-coated plate according to a standard template with each sample repeated in triplicate. After incubation for two hours at room temperature, the plate was washed 3× with 150 μL of TBS+ buffer. To each well, 50 μl of biotinylated anti-α5 antibody (R&D Systems, BAF1864) at 0.5 μg/mL in TBS+/0.1% BSA were added and the plate covered and incubated for 1 hr at room temperature. After washing the plate 3× with 150 μL of TBS+ buffer, 50 μL of streptavidin-conjugated horseradish peroxidase (R&D Systems, DY998) diluted in TBS+ blocking buffer were added to the wells and the plate incubated for 20 min at room temperature. The plate was washed 3× with TBS+ buffer followed by 50 μL of room temperature TMB substrate (Sigma, T444) added to each well and the plate incubated for 20 min at room temperature. Plates were read by colorimetric detection at 650 nm wavelength using a Tecan Safire II plate reader. Concentration-response curves were constructed by non-linear regression (best fit) analysis, and IC50 values were calculated for each compound.

Experiment [2] deals with Recombinant human integrin αvβ1 (Homo sapiens (Human), UniProt P05556+P06756). Description: Solid Phase Receptor Assay (SPRA) for αvβ1 function. The conditions noted are these: fibronectin-coated plate. The procedure:
2. Solid Phase Receptor Assay (SPRA) for αvβ1 Function
Purified human fibronectin (R&D Systems, 1918-FN) diluted to 5 μg/mL in TBS+ buffer (25 mM Tris pH 7.4, 137 mM NaCl, 2.7 mM KCl, 1 mM CaCl2, 1 mM MgCl2, 1 mM MnCl2) was added to wells (50 μL/well) of a 96-well half-well transparent microtiter plate (Greiner 675061) and incubated overnight at 4° C. Wells were washed 3 times with 150 μL TBS+ and 150 μL of blocking buffer (TBS+ with 1% bovine serum albumin, Sigma A7906) were added. The plate was incubated for 1 hr at 37° C. and then washed 3× with TBS+ buffer. Recombinant human integrin αvβ1 (R&D Systems. 6579-AV) was diluted to 2.0 μg/mL in TBS+/0.1% bovine serum albumin. Compounds were diluted 1:100 into the integrin solution and 50 μL added to empty wells of the washed fibronectin-coated plate according to a standard template with each sample repeated in triplicate. After incubation for two hours at room temperature, the plate was washed 3× with 150 μL of TBS+ buffer. To each well, 50 μL of biotinylated anti-αv antibody (R&D Systems, BAF1219) at 1 μg/mL in TBS+/0.1% BSA were added and the plate covered and incubated for 1 hr at room temperature. After washing the plate 3× with 150 μL of TBS+ buffer, 50 μL of streptavidin-conjugated horseradish peroxidase (R&D Systems, DY998) diluted in TBS+ blocking buffer were added to the wells and the plate incubated for 20 min at room temperature. The plate was washed 3× with TBS+ buffer followed by 50 μL of TMB substrate (Sigma, T4444) added to each well and the plate incubated for 20 min at room temperature. Plates were read by colorimetric detection at 650 nm wavelength using a Tecan Safire II plate reader. Concentration-response curves were constructed by non-linear regression (best fit) analysis, and IC50 values were calculated for each compound.

The target of experiment [3] is Recombinant human integrin αvβ5 (Homo sapiens (Human), UniProt P06756+P18084). Description: Solid Phase Receptor Assay (SPRA) for αvβ5 function. Conditions: vitronectin-coated plate. Here is the method:
4. Solid Phase Receptor Assay (SPRA) for αvβ5 Function
Recombinant human vitronectin (R&D Systems, 2308-VN) at 0.25 μg/mL in TBS+ buffer (25 mM Tris pH 7.4, 137 mM NaCl, 2.7 mM KCl, 1 mM CaCl2, 1 mM MgCl2, 1 mM MnCl2) was added to wells (50 μL/well) of a 96-well half-well transparent microtiter plate (Greiner 675061) and incubated overnight at 4° C. Wells were washed 3 times with 150 μL TBS+ and 150 μL of blocking buffer (TBS+ with 1% bovine serum albumin, Sigma A7906) were added. The plate was incubated for 1 hr at 37° C. and then washed 3× with TBS+ buffer. Recombinant human integrin αvβ5 (R&D Systems, 2528-AV) was diluted to 0.1 μg/mL in TBS+/0.1% bovine serum albumin. Compounds were diluted 1:100 into the integrin solution and then 50 μL added to empty wells of the washed vitronectin-coated plate according to a standard template with each sample repeated in triplicate. After incubation for two hours at room temperature, the plate was washed 3× with 150 μL of TBS+ buffer. To each well, 50 μl of biotinylated anti-αv antibody (R&D Systems, BAF1219) at 0.5 μg/mL in TBS+/0.1% BSA at 0.5 μg/mL were added and the plate covered and incubated for 1 hr at room temperature. After washing the plate 3× with 150 μL of TBS+ buffer, 50 μL of streptavidin-conjugated horseradish peroxidase (R&D Systems DY998) diluted in TBS+ blocking buffer were added to the wells and the plate incubated for 20 min at room temperature. The plate was washed 3× with TBS+ buffer followed by 50 μL of TMB substrate (Sigma T4444) added to each well and the plate incubated for 20 min at room temperature. Plates were read by colorimetric detection at 650 nm wavelength using a Tecan Safire II plate reader. Concentration-response curves were constructed by non-linear regression (best fit) analysis, and IC50 values were calculated for each compound.

Sequence of Recombinant human integrin α5β1 (P08648 42-995): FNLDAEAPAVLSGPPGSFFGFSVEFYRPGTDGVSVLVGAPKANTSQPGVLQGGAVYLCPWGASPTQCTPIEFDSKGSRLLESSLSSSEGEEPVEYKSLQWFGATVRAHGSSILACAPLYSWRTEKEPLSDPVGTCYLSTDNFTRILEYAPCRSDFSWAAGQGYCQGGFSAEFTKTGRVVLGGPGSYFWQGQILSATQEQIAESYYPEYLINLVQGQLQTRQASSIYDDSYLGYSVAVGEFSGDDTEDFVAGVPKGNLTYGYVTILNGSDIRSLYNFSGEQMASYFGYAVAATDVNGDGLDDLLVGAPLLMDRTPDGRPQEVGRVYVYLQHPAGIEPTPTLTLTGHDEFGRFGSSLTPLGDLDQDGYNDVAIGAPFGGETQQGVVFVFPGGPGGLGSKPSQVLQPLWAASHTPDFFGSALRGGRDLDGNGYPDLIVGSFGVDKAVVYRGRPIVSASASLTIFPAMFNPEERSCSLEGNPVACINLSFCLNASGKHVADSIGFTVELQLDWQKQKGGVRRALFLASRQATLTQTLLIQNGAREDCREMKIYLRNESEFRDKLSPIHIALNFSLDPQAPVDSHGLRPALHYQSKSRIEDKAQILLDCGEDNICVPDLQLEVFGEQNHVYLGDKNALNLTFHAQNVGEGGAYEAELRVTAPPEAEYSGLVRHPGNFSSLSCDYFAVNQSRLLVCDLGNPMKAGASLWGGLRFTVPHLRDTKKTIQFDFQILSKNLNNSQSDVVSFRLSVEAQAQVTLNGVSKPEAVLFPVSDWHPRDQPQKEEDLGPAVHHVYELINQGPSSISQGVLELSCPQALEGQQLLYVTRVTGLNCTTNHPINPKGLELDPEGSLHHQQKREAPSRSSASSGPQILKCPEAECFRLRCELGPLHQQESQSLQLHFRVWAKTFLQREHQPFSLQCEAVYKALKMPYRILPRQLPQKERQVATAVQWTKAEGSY
Sequence of Recombinant human integrin α5β1 (P05556 21-728): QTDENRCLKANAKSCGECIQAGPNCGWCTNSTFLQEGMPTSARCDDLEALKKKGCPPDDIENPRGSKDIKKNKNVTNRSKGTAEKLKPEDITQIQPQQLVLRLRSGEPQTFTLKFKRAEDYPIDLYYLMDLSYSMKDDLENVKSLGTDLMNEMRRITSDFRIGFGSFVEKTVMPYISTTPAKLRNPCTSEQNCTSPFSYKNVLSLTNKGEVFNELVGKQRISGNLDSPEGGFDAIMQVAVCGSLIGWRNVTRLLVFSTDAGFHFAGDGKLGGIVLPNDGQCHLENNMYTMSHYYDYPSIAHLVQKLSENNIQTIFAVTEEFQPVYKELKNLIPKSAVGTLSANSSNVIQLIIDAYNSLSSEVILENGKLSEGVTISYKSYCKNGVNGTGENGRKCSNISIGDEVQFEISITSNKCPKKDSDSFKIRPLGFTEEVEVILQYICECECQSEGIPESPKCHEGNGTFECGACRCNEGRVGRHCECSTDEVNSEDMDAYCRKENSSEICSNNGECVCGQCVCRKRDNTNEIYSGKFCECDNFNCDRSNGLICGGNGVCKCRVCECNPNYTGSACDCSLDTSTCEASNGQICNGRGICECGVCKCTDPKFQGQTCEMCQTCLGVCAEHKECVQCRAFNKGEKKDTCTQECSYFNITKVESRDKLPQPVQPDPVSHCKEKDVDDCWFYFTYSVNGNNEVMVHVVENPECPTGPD
Sequence of Recombinant human integrin αvβ1 (P06756 31-992): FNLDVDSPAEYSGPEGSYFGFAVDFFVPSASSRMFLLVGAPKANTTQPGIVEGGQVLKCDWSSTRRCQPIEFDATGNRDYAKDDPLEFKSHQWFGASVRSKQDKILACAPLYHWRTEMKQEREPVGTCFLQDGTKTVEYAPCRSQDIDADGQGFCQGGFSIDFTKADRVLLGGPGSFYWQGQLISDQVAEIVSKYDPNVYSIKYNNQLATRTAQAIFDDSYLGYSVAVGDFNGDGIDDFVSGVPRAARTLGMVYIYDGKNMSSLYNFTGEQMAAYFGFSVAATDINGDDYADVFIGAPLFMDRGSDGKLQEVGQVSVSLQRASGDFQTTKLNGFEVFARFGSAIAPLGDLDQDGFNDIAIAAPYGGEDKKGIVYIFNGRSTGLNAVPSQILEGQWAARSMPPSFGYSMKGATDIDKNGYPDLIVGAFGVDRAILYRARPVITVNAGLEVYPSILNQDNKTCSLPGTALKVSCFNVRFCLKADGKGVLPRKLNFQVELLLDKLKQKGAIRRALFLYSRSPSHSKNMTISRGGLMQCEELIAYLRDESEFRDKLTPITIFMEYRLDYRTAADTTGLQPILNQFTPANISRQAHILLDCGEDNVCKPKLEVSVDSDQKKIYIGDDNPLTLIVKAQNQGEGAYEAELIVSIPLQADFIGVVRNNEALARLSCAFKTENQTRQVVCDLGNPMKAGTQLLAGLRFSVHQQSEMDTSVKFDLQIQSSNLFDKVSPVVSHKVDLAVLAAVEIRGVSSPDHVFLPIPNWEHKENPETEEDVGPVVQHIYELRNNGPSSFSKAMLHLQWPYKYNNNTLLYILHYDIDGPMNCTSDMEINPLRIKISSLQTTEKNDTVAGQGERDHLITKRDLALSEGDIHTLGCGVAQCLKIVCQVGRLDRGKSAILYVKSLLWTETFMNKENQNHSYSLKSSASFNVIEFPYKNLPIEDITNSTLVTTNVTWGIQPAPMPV
Sequence of Recombinant human integrin αvβ1 (P05556 21-728): as the sequence (P05556 21-728) above
Sequence of Recombinant human integrin αvβ5 (P06756 31-992): as the sequence (P06756 31-992) above
Sequence of Recombinant human integrin αvβ5 (P18084 24-719): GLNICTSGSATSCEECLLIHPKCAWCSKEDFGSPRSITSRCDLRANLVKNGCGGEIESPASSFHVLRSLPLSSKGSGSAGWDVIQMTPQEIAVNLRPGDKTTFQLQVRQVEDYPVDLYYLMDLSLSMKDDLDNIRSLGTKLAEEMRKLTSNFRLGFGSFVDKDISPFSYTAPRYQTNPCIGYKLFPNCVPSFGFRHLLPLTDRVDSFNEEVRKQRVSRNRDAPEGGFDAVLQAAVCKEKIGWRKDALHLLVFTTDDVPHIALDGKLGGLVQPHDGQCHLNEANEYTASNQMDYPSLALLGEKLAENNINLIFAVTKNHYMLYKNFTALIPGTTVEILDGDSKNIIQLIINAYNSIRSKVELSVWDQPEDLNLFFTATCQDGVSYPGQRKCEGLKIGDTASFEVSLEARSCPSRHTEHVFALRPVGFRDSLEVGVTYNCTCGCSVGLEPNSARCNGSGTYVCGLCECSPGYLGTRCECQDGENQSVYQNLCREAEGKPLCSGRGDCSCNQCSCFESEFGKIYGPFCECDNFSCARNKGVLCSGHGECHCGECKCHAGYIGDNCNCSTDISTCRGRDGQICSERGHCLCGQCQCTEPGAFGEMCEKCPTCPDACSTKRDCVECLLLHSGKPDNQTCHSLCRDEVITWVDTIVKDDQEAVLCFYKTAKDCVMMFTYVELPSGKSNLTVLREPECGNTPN

One may read the IC50 as the concentration that inhibits the measured activity by half. Take `O=C(O)C[C@H](NC(=O)CNC(=O)c1cc(O)cc(NC2=NCC(O)CN2)c1)c1cc(Br)cc(Br)c1` (stereo partly drawn) [Example 1, (3S)-3-(3,5-dibromophenyl)-3-(2-(3-hydroxy-5-((5-hydroxy-1,4,5,6-tetrahydropyrimidin-2-yl)amino)benzamido)acetamido)propanoic acid]: the IC50 was 1 ± 0.5 nM in experiment [1], 2 ± 2 nM in experiment [2] and 0.2 nM in experiment [3].
For `O=C(O)C[C@H](NC(=O)CNC(=O)c1cc(O)cc(NC2=NCC(O)CN2)c1)c1cc(Br)cc(C(F)(F)F)c1` (stereo partly drawn) [Example 2, (3S)-3-(3-bromo-5-(trifluoromethyl)phenyl)-3-(2-(3-hydroxy-5-((5-hydroxy-1,4,5,6-tetrahydropyrimidin-2-yl)amino)benzamido)acetamido)propanoic acid], in that order: 0.8 nM, 2 nM and 0.4 nM.
In the same order, the values of `O=C(O)C[C@H](NC(=O)CNC(=O)c1cc(O)cc(NC2=NCC(O)CN2)c1)c1cc(Cl)cc(C(F)F)c1` (stereo partly drawn) [Example 3, (3S)-3-[3-chloro-5-(difluoromethyl)phenyl)-3-(2-(3-hydroxy-5-((5-hydroxy-1,4,5,6-tetrahydropyrimidin-2-yl)amino)benzamido)acetamido]propanoic acid] are 0.5 nM, 2 nM and 0.2 nM.
For `O=C(O)C[C@H](NC(=O)CNC(=O)c1cc(O)cc(NC2=NCC(O)CN2)c1)c1cc(Br)cc(C(F)F)c1` (stereo partly drawn) [Example 4, (3S)-3-[3-bromo-5-(difluoromethyl)phenyl)-3-(2-(3-hydroxy-5-((5-hydroxy-1,4,5,6-tetrahydropyrimidin-2-yl)amino)benzamido)acetamido]propanoic acid], in that order: 0.7 nM, 2 nM and 0.4 nM.
In the case of `O=C(O)C[C@H](NC(=O)CNC(=O)c1cc(O)cc(NC2=NCC(O)CN2)c1)c1cc(Cl)cc(C(F)(F)F)c1` (stereo partly drawn) [Example 5, (3S)-3-[3-chloro-5-(trifluoromethyl)phenyl)-3-(2-(3-hydroxy-5-((5-hydroxy-1,4,5,6-tetrahydropyrimidin-2-yl)amino)benzamido)acetamido]propanoic acid], the IC50 in experiment [1] was determined as 0.8 nM; in experiment [2] it was 2 nM; in experiment [3], 0.5 nM.
In the same order, the values of `O=C(O)C[C@H](NC(=O)CNC(=O)c1cc(O)cc(NC2=NCC(O)CN2)c1)c1cc(Cl)cc(Br)c1` (stereo partly drawn) [Example 6, (3S)-3-[3-bromo-5-chloro-phenyl)-3-(2-(3-hydroxy-5-((5-hydroxy-1,4,5,6-tetrahydropyrimidin-2-yl)amino)benzamido)acetamido]propanoic acid] are 0.6 nM, 3 nM and 0.2 nM.
For `O=C(O)C[C@H](NC(=O)CNC(=O)c1cncc(NC2=NCC(O)CN2)c1)c1cc(Cl)cc(C(F)(F)F)c1` (stereo partly drawn) [Example 7], in that order: 0.7 nM, 1 nM and 0.2 nM.
For `O=C(O)C[C@H](NC(=O)CNC(=O)c1cncc(NC2=NCC(O)CN2)c1)c1cc(Cl)cc(Br)c1` (stereo partly drawn) [Example 8, (3S)-3-(3-bromo-5-chloro-phenyl)-3-[[2-[[5-[(5-hydroxy-1,4,5,6-tetrahydropyrimidin-2-yl)amino]pyridine-3-carbonyl]amino]acetyl]amino]propanoic acid], in that order: 0.6 nM, 1 nM and 0.1 nM.
As to `O=C(O)C[C@H](NC(=O)CNC(=O)c1cncc(NC2=NCC(O)CN2)c1)c1cc(Br)cc(C(F)(F)F)c1` (stereo partly drawn) [Example 9, (3S)-3-[3-bromo-5-(trifluoromethyl)phenyl]-3-[[2-[[5-[(5-hydroxy-1,4,5,6-tetrahydropyrimidin-2-yl)amino]pyridine-3-carbonyl]amino]acetyl]amino]propanoic acid], the IC50 in experiment [1] stood at 0.3 nM; in experiment [2] it was 1 nM; in experiment [3] it was 0.3 nM.
As for `O=C(O)C[C@H](NC(=O)CNC(=O)c1cc(O)cc(NC2=NCC(O)CN2)c1)c1cc(C(F)(F)F)cc(C(F)(F)F)c1` (stereo partly drawn) [Example 10, (3S)-3-[3,5-bis(trifluoromethyl)phenyl)-3-(2-(3-hydroxy-5-((5-hydroxy-1,4,5,6-tetrahydropyrimidin-2-yl)amino)benzamido)acetamido]propanoic acid], the values for the IC50 in experiment [1], in experiment [2] and in experiment [3] were 1 ± 0.4 nM, 2 ± 1 nM and 1 nM, respectively.
In the same order, the values of `Cc1cc(Br)cc([C@H](CC(=O)O)NC(=O)CNC(=O)c2cc(O)cc(NC3=NCC(O)CN3)c2)c1` (stereo partly drawn) [Example 11, (3S)-3-[3-bromo-5-methyl-phenyl)-3-(2-(3-hydroxy-5-((5-hydroxy-1,4,5,6-tetrahydropyrimidin-2-yl)amino)benzamido)acetamido)propanoic acid] are 0.5 nM, 0.4 nM and 0.3 nM.
In the same order, the values of `Cc1cc(Cl)cc([C@H](CC(=O)O)NC(=O)CNC(=O)c2cc(O)cc(NC3=NCC(O)CN3)c2)c1` (stereo partly drawn) [Example 12, (3S)-3-[3-chloro-5-methyl-phenyl)-3-(2-(3-hydroxy-5-((5-hydroxy-1,4,5,6-tetrahydropyrimidin-2-yl)amino)benzamido)acetamido)propanoic acid] are 2 nM, 4 ± 2 nM and 0.4 nM.
For `O=C(O)C[C@H](NC(=O)CNC(=O)c1cc(O)cc(NC2=NCC(O)CN2)c1)c1cc(F)cc(Br)c1` (stereo partly drawn) [Example 13, (3S)-3-[3-bromo-5-fluoro-phenyl)-3-(2-(3-hydroxy-5-((5-hydroxy-1,4,5,6-tetrahydropyrimidin-2-yl)amino)benzamido)acetamido)propanoic acid], in that order: 0.6 nM, 1 nM and 0.1 nM.
